In brackets after ≈: the same amount, converted by molar mass. Peptide text beside a SMILES is read from it.
What was measured:
S. aureus ATCC 29213 = type: cell-based; conditions: ATCC 29213, 18 h
E. coli K12 = type: cell-based; conditions: K12, 18 h
S. aureus / E. coli = conditions: cited from earlier work

CC[C@H](C)[C@H](NC(=O)CN)C(=O)NCC(=O)N[C@@H](CCCCN)C(=O)N[C@@H](Cc1ccccc1)C(=O)N[C@@H](CC(C)C)C(=O)N[C@@H](CCCCN)C(=O)N[C@@H](CCCCN)C(=O)N[C@@H](C)C(=O)N[C@@H](CCCCN)C(=O)N[C@@H](CCCCN)C(=O)N[C@@H](Cc1ccccc1)C(=O)NCC(=O)N[C@@H](CCCCN)C(=O)N[C@@H](C)C(=O)N[C@@H](Cc1ccccc1)C(=O)N[C@H](C(=O)N[C@@H](CCCCN)C(=O)N[C@H](C(=O)N[C@@H](CC(C)C)C(=O)N[C@@H](CCCCN)C(=O)N[C@@H](CCCCN)C(N)=O)[C@@H](C)CC)C(C)C [MSI-78] (H-GIGKFLKKAKKFGKAFVKILKK-NH2) showed an MIC (S. aureus ATCC 29213) of 12.5 µg/mL (≈ 5.05 µM).
CC[C@H](C)[C@H](NC(=O)[C@H](CCCCN)NC(=O)CNC(=O)[C@H](C)NC(=O)[C@@H](NC(=O)[C@H](CCCCN)NC(=O)[C@H](C)NC(=O)[C@@H](NC(=O)[C@H](CCCCN)NC(=O)CNC(=O)[C@H](C)NC(=O)[C@@H](NC(=O)[C@H](CCCCN)NC(=O)[C@H](C)NC(=O)[C@@H](NC(=O)[C@H](CCCCN)NC(=O)CNC(=O)[C@H](C)NC(=O)[C@@H](NC(=O)[C@@H](N)CCCCN)[C@@H](C)CC)[C@@H](C)CC)[C@@H](C)CC)[C@@H](C)CC)[C@@H](C)CC)C(=O)N[C@@H](C)C(N)=O [MSI-103] (H-KIAGKIAKIAGKIAKIAGKIA-NH2) showed an MIC (E. coli K12) of 1.6 µg/mL (≈ 0.776 µM) and an MIC (S. aureus ATCC 29213) of 25 µg/mL (≈ 12.1 µM).
For Cateslytin, the “MIC S. aureus/MIC E. coli” value (S. aureus / E. coli) is listed as >3.
